In PubChem BioAssay (NCI):
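Growth conditions: 96-well plates. Treatment: test compound, 48 hours, 5 concentrations. Analysis: linear interpolation between bracketing concentrations; unreached endpoints set to highest concentration. TGI marks complete inhibition of growth.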

How the values were obtained:
Assay in all cases: DTP human tumour cell line panel, 48 h
EKVX NSCLC = test system: EKVX NSCLC
HS 578T breast = test system: HS 578T breast
IGROV1 ovarian = test system: IGROV1 ovarian
M14 melanoma = test system: M14 melanoma
MALME-3M melanoma = test system: MALME-3M melanoma
MDA-N = test system: MDA-N
NCI/ADR-RES ovarian = test system: NCI/ADR-RES ovarian
SF-268 CNS = test system: SF-268 CNS
SK-OV-3 ovarian = test system: SK-OV-3 ovarian
SNB-19 CNS = test system: SNB-19 CNS
UO-31 renal = test system: UO-31 renal

Row | SMILES | TGI (EKVX NSCLC) | TGI (HS 578T breast) | TGI (IGROV1 ovarian) | TGI (M14 melanoma) | TGI (MALME-3M melanoma) | TGI (MDA-N) | TGI (NCI/ADR-RES ovarian) | TGI (SF-268 CNS) | TGI (SK-OV-3 ovarian) | TGI (SNB-19 CNS) | TGI (UO-31 renal)
1 | COc1ccccc1/C=C1\CCC(Cc2ccccc2)(CN(C)C)C1=O (configuration not stated) | 34.7 µM | > 100 µM | > 41.2 µM | 34.9 µM | > 100 µM | 3.12 µM | > 100 µM | > 100 µM | > 42.2 µM | > 100 µM | > 100 µM
2 | N#Cc1c(-c2ccccc2)cn(C(=O)c2ccccc2)c1N | > 100 µM | > 100 µM | > 100 µM | > 100 µM | > 100 µM | > 100 µM | > 100 µM | > 100 µM | > 100 µM | > 100 µM | > 100 µM
3 | CCCCC/C=C\C=C\CCCCCCCCC(=O)OC | > 100 µM | > 100 µM | > 100 µM | > 100 µM | > 100 µM | > 100 µM | > 100 µM | > 100 µM | > 100 µM | > 100 µM | 31.3 µM
4 | Cc1ccc(NC(=O)c2cccc(OP(=O)(Nc3ccc(C)cc3)Nc3ccc(C)cc3)c2)cc1 | > 100 µM | 79.9 µM | > 100 µM | 9.08 µM | 39.6 µM | 21.7 µM | > 100 µM | > 100 µM | > 100 µM | > 100 µM | 45.3 µM
5 | c1ccc2c(c1)nc1ccccn12 | > 100 µM | > 100 µM | > 100 µM | > 100 µM | > 100 µM | > 100 µM | > 100 µM | > 100 µM | > 100 µM | > 100 µM | > 100 µM
6 | Cc1cc(NS(=O)(=O)c2ccc(NO)cc2)no1 | > 100 µM | > 100 µM | > 100 µM | > 100 µM | > 100 µM | 44.4 µM | > 100 µM | > 100 µM | > 100 µM | > 100 µM | > 100 µM
7 | CO[P@@]1(=O)O[C@@H](c2ccccc2)[C@H](O)[C@@]1(O)c1ccccc1 | > 100 µM | > 100 µM | > 100 µM | > 100 µM | > 100 µM | > 100 µM | > 100 µM | > 100 µM | > 100 µM | > 100 µM | > 100 µM
8 | COC(C)=NCCC1=CCCCC1 | > 100 µM | > 100 µM | > 100 µM | > 100 µM | > 100 µM | > 100 µM | > 100 µM | > 100 µM | > 100 µM | > 100 µM | > 100 µM
9 | Cc1cn(CC(=S)NCCc2c[nH]c3ccccc23)c(=O)[nH]c1=O | > 100 µM | > 100 µM | > 100 µM | > 100 µM | > 100 µM | > 100 µM | > 100 µM | > 100 µM | > 100 µM | > 100 µM | > 100 µM
10 | CC(=O)N1C(c2[nH]c3ccccc3c2Cc2ccccc2)CCN1c1ccccc1 (configuration not stated) | > 10 µM | > 10 µM | > 10 µM | > 10 µM | > 10 µM | > 10 µM | > 10 µM | > 10 µM | > 10 µM | > 10 µM | > 10 µM
11 | O=C(Nc1ccccc1)OCCN=c1c2ccccc2ccc2ccccc12 | 92.4 µM | 51.3 µM | > 100 µM | 40.8 µM | 46 µM | 39 µM | 65.9 µM | > 100 µM | > 100 µM | 62.7 µM | 39.9 µM
12 | C=C1N(C)c2ccc(S(=O)(=O)c3ccc4c(c3)C(C)(C)C(=C)N4C)cc2C1(C)C | > 100 µM | 89.2 µM | > 100 µM | > 100 µM | 79 µM | > 100 µM | > 100 µM | > 100 µM | > 100 µM | > 100 µM | > 100 µM
13 | CCOC(=O)N1c2ccccc2N(C(=O)OCC)C1CC(=O)/C=C/c1ccccc1 | 8.54 µM | > 19.9 µM | 17.8 µM | 19.3 µM | 18.9 µM | 15.8 µM | 9.77 µM | 9.82 µM | 23 µM | 16.8 µM | 14.7 µM
14 | CC/C(Cl)=N\OC(=O)Nc1ccc(F)c(Cl)c1 | 32.9 µM | > 100 µM | 34.7 µM | 23.1 µM | 9.29 µM | 33.4 µM | 42.7 µM | 43.4 µM | 32.5 µM | 20.7 µM | 32.3 µM
15 | O=c1ccn(C/C=C/c2ccccc2)c(=S)n1C/C=C/c1ccccc1 | > 100 µM | > 100 µM | > 100 µM | > 100 µM | > 100 µM | > 100 µM | > 100 µM | > 100 µM | > 100 µM | > 100 µM | > 100 µM
16 | Cc1nc(C)c(N2CCN(Cc3ccccc3)CC2)c(=O)[nH]1 | > 100 µM | > 100 µM | > 100 µM | > 100 µM | > 100 µM | > 100 µM | > 100 µM | > 100 µM | > 100 µM | > 100 µM | > 100 µM
17 | CCCCCN1C(=O)C(Cc2ccccc2)N=C(c2ccc(O)cc2)c2cc(Cl)ccc21 (configuration not stated) | 25.6 µM | 32.4 µM | 23.9 µM | 34.4 µM | 23.6 µM | > 40.3 µM | 25.4 µM | 25.3 µM | 41.1 µM | 33.7 µM | 25.3 µM
